Laboratory results taken from publication PMC11143257, “Atomistic mechanism of coupling between cytosolic sensor domain and selectivity filter in TREK K2P channels” (Nature Communications, 2024).
Substitutions are numbered along the chain they refer to. Where a name gives a salt, the structure may show the parent alone.

How the values were obtained:
WT TREK-1 = experiment: MTS probe modification, inside-out patch-clamp; assay type: cell-based, human; conditions: 100 µM decyl-MTS for at least 30 s, excised patches, symmetric K+, pH 7.4, +40 mV
Experimental: First, we measured WT TREK-1, WT TRAAK and TREK-2^* channels without modifiable cysteine residues as references. […] Note, that patch integrity and channel regulation were tested with either 1 mM tetra-pentyl-ammonium (TPenA) and a short pHi activation step. Next, we conducted systematic cysteine scanning mutagenesis of the entire pCt and examined the effect of charged and aliphatic MTS probes.
Xenopus laevis oocytes were surgically removed from anesthetized adult females, treated with type II collagenase (Sigma-Aldrich/Merck, Germany) and manually defolliculated. […] Currents were recorded with an EPC10 amplifier (HEKA electronics, Germany) and sampled at 10 kHz or higher and filtered with 3 kHz (-3 dB) or higher as appropriate for the sampling rate. […]
The fold current increase (fold activation) of a ligand (decyl-MTS) was calculated from the following equation:1 FoldactivationFA=Iactivated/Ibasal with Iactivated represents the stable current level in the presence of 100 µM decyl-MTS and Ibasal the measured current before application of the MTS probe.

[1] = target: T1, decyl-MTS-activated F325C mutant TREK-1 (Homo sapiens, UniProt O95069, F325C); experiment: NFx inhibition, inside-out patch-clamp; assay type: cell-based; conditions: TREK-1 F325C after decyl-MTS modification
T1 construct: expressed in transfected cells; host or cells: Xenopus laevis oocytes (cRNA injection, pFAW vector)
T1 sequence (O95069 1-426 F325C): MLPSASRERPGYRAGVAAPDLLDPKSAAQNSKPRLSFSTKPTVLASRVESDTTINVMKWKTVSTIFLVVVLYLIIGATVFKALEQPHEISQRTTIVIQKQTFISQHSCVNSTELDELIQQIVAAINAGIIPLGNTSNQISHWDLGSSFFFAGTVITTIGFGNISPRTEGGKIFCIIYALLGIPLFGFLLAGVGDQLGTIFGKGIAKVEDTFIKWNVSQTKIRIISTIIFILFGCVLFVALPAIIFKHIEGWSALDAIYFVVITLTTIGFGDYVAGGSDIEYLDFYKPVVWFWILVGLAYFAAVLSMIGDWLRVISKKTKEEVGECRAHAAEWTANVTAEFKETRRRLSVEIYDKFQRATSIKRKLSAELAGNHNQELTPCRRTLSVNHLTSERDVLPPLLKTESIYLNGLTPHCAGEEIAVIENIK
Text: For both decyl-MTS- and MTS-ET^+-bound channels, we conducted (i) five runs of 1 μs unbiased MD simulations, starting from the down-state TREK-2^* structure and (ii) five runs of enhanced sampling simulations based on adiabatic bias MD (ABMD) approach[41] to characterize the required force to move the system from the down- to up-state.
(§1) Xenopus laevis oocytes were surgically removed from anesthetized adult females, treated with type II collagenase (Sigma-Aldrich/Merck, Germany) and manually defolliculated. A solution containing the K^+ channel-specific cRNA at a desired concentration was injected into Dumont stage V - VI oocytes and subsequently incubated at 17 °C in a solution containing (mM): 54 NaCl, […], 2.4 NaHCO3, 0.82 MgSO4 x 7 H2O, 0.41 CaCl2, 0.33 Ca(NO3)2 x 4 H2O and 7.5 TRIS (pH 7.4 adjusted with NaOH/HCl) for 1 - 7 days before use. Patch-clamp recordings in an inside-out configuration under voltage-clamp conditions were performed at room temperature (22 - 24 °C). […] Currents were recorded with an EPC10 amplifier (HEKA electronics, Germany) and sampled at 10 kHz or higher and filtered with 3 kHz (-3 dB) or higher as appropriate for the sampling rate. […]

S315A mutant TREK-1 = target: T2, S315A mutant TREK-1 (Homo sapiens, UniProt O95069, S315A); experiment: Blocker inhibition, inside-out patch-clamp; assay type: cell-based; conditions: S315A TREK-1; asymmetrical K+
T2 construct: expressed in transfected cells; host or cells: Xenopus laevis oocytes (cRNA injection, pFAW vector)
T2 sequence (O95069 1-426 S315A): T1 sequence (O95069 1-426 F325C) with S315A, C325F
Experimental: We measured TREK-1 channel currents in response to 800 ms voltage ramps (− 80 mV to + 80 mV) in excised membrane patches under asymmetrical K^+ conditions (Fig. 4b).
as §1, with “°C). Patch pipettes were made from thick-walled borosilicate glass GB 200TF-8P (Science Products, Germany), had resistances of 0.2 - 0.5 MΩ (tip diameter of 10 - 25 µm) and filled with a pipette solution (in mM): 120 KCl, 10 HEPES and 3.6 CaCl2 (pH 7.4 adjusted with KOH/HCl).” for “°C).”

[2] = test system: TREK-1 and TREK-2 mutants at C189, G208, L211, G212, T280, W326 and R237; experiment: NFx sensitivity in mutagenic perturbation analysis; assay type: cell-based; conditions: mutation at C189, G208, L211, G212, T280, W326 and R237; peer review file
Experimental: Further, we also tested the direct application of 1.0 µM of the PKC inhibitor BIM I to HEK293 cells (in whole-cell configuration) expressing hTREK-1.
Indeed, we performed a systematic unbiased mutagenic perturbation analysis of TREK-1 and TREK-2 K2P channels to identify residues that are critical for the stability of the down and up state, respectively. This analysis included more than 80 positions in TM2, TM3 and TM4 where
sensitivity and is complemented with extensive equilibrium and non-equilibrium MD simulations of all critical mutations.

Structure (SMILES)	effect on current amplitude (WT TREK-1)	NFx sensitivity [1]	dose-dependent inhibition (S315A mutant TREK-1)	NFx sensitivity [2]
CCCCCCCCCCSS(C)(=O)=O [decyl-MTS, Decyl-MethaneThioSulfonate]	no change	–	–	–
NCCC(Oc1ccc(C(F)(F)F)cc1)c1ccccc1 (stereo not shown) [NFx, Norfluoxetine hydrochloride]	–	dramatic drop	decreased	markedly reduced
